Source: patent US6670347B2, “19-nor-17α-pregna-1,3,5(10)-trien-17β-ols with a 21,16α-lactone ring” (Schering AG, priority 2000, dated 2003)

Columns and labels:
ovariectomized rats = experiment: Uterus growth test on ovariectomized rats (3-day treatment); type: in vivo, rat; set-up: unit not given beside the values; settings: subcutaneously daily over 3 days
Method: An in-depth description of the experiment was published (K. H., Fritzemeir, Ch. Hegele-Hartung (1999), Handbook of Pharmacol., Oettel, Schillinger eds., 135/II, 21:1-94). Ovariectomized rats were treated 10 days after ovariectomy with various dosages of the test substance or reference substance. The treatment was carried out subcutaneously daily over 3 days. On day 4, the animals were sacrificed, and the uterus moist and dry weights were determined.

[1] = tested on: estrogen receptor preparations of rat prostates (rat prostate cytosol; ERβ predominates); experiment: Estrogen receptor binding, rat prostate cytosol (competition with 3H-estradiol); settings: relative binding affinity, RBA of reference substance estradiol = 100
Method: (§1) This patent application describes novel structures for selective estrogens, which have in vitro dissociation with respect to binding to estrogen receptor preparations of the rat uterus and rat prostate. In this case, it is assumed that ERα predominates in the rat uteri over ERβ, while ERβ predominates in the rat prostates over ERα.
(§2) The binding affinity of the new selective estrogens was tested in competitive tests with use of 3H-estradiol as a ligand in estrogen receptor preparations of rat prostates and rat uteri. The preparation of the prostate cytosol and the estrogen receptor test was performed with the prostate cytosol, as described by Testas et al. (1981) (Testsas, J. et al., 1981, Endocrinology 109:1287-1289).

[2] = target: T1, estrogen receptor preparations of rat uteri (rat uterus cytosol; ERα predominates) (Rattus norvegicus, UniProt P06211); experiment: Estrogen receptor binding, rat uterus cytosol (competition with 3H-estradiol); settings: relative binding affinity, RBA of reference substance estradiol = 100
T1 construct: The preparation of rat uterus cytosol, and the receptor test with the ER containing cytosol; from tissue; host or cells: rat uterus cytosol
T1 sequence (P06211 1-600): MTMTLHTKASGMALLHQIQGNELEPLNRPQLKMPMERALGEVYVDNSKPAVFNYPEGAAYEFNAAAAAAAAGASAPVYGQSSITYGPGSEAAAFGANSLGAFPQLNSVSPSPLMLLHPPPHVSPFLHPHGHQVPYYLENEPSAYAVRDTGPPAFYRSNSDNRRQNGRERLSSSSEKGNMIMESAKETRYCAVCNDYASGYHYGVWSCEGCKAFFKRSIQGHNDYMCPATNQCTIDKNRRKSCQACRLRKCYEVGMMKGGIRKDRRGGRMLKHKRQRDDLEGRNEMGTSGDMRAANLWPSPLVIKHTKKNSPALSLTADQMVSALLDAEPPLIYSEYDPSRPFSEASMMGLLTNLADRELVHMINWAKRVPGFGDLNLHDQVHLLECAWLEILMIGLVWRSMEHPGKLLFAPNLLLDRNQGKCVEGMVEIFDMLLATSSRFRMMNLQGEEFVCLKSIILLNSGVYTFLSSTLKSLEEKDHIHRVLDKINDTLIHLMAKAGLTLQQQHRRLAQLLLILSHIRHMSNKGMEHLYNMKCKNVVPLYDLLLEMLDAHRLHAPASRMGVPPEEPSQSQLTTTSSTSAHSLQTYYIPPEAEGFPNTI
Method: as §1, §2
The preparation of rat uterus cytosol, and the receptor test with the ER containing cytosol were performed basically as by Stack and Gorski, 1985 (Stack, Gorski 1985, Endocrinology 117, 2024-2032) with some modifications as described in Fuhrmann et al. (1995) (Fuhrmann U. et al. 1995, Contraception 51:45-52).

Rat Prostate Cytosol (RBA*) [1] | Rat Uterus Cytosol (RBA*) [2] | SMILES | Uterus Moist Weight [Mw ± SD] (ovariectomized rats; dosage 0.1 μg/kg) | Uterus Moist Weight [Mw ± SD] (ovariectomized rats; dosage 1 μg/kg) | Uterus Moist Weight [Mw ± SD] (ovariectomized rats; dosage 10 μg/kg)
 |  | C[C@]12CC[C@@H]3c4ccc(O)cc4CC[C@H]3[C@@H]1CC[C@@H]2O [17β-Estradiol, reference compound] | 28.0 ± 2.0 | 71.9 ± 9.6 | 82.3 ± 11.3
<0.1 | 12.5 | C[C@]12CC[C@@H]3c4ccc(O)cc4CC[C@H]3[C@@H]1C[C@H]1OC(=O)C[C@]12O [3,17β-Dihydroxy-19-nor-17α-pregna-1,3,5(10)-triene-21,16α-lactone] | 23.7 ± 2.2 | 60.1 ± 7.4 | 95.9 ± 12.4
